Data taken from ChEMBL document CHEMBL1134064, “Structure-activity relationship investigations of a potent and selective benzodiazepine oxytocin antagonist” (Bioorg Med Chem Lett, 2001).

Experiments:
Oxytocin receptor = molecular target: T1, Oxytocin receptor (Homo sapiens, UniProt P30559); assay: Inhibition of binding of [3H]oxytocin with human oxytocin receptor
T1 sequence (P30559 whole entry): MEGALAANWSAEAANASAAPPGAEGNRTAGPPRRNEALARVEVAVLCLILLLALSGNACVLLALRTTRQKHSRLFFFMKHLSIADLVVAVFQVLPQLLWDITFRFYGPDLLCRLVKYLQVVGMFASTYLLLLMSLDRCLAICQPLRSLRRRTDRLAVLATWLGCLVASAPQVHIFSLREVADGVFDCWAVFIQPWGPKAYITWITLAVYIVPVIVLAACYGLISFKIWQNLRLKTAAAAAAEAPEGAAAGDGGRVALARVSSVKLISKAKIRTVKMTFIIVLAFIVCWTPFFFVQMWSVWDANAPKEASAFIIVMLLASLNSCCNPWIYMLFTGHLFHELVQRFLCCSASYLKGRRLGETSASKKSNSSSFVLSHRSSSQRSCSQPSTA

[1] = Volume distribution was determined; format: ADME, organism-based, Canis lupus familiaris; details: dog, in vivo
[2] = Plasma clearance was determined; format: ADME, organism-based, Canis lupus familiaris; details: dog
[3] = Bioavailability; format: ADME, organism-based, Canis lupus familiaris; details: dog, in vivo

Row | Compound | Ki (Oxytocin receptor) [nM] | Vd [1] [L/kg] | clearance [2] [mL/min/kg] | bioavailability [3] [%]
1 | CC(=O)NC1N=C(c2ccccc2)c2ccccc2N(CC(=O)NCCc2ccc(Cl)c(Cl)c2)C1=O (centres undefined) | 100 | – | – | –
2 | CC(=O)CCCC(=O)NC1N=C(c2ccccc2)c2ccccc2N(CC(=O)NC2CCc3ccccc3C2)C1=O (centres undefined) | > 5010 | 0.2 | 0.3 | –
3 | CC(=O)CCCC(=O)NC1N=C(c2ccccc2)c2ccccc2N(CC(=O)N[C@@H](Cc2ccc(Cl)c(Cl)c2)C(N)=O)C1=O (some centres undefined) | 7.94 | 0.6 | 62 | > 20
4 | CC(=O)CCCC(=O)NC1N=C(c2ccccc2)c2ccccc2N(CC(=O)N[C@@H](Cc2ccc(F)cc2)C(N)=O)C1=O (some centres undefined) | 79.4 | – | – | –
5 | CC(=O)CCCC(=O)NC1N=C(C)c2ccccc2N(CC(=O)N[C@@H](Cc2ccc(Cl)c(Cl)c2)C(N)=O)C1=O (some centres undefined) | 200 | – | – | –
6 | CC(=O)CCCC(=O)NC1N=C(C2CCCCC2)c2ccccc2N(CC(=O)N[C@@H](Cc2ccc(Cl)c(Cl)c2)C(N)=O)C1=O (some centres undefined) | 31.6 | – | – | –
7 | CC(=O)NC1N=C(c2ccccc2)c2ccccc2N(CC(=O)NCCc2cccc(Cl)c2)C1=O (centres undefined) | 100 | 0.4 | 6 | –
8 | CC(=O)CCCC(=O)NC1N=C(c2ccccc2)c2ccccc2N(CC(=O)NCCc2cccc(Cl)c2)C1=O (centres undefined) | 20 | 0.3 | 3 | –
9 | CC(=O)NC1N=C(c2ccccc2)c2ccccc2N(CC(=O)N[C@@H](Cc2ccc(Cl)c(Cl)c2)C(N)=O)C1=O (some centres undefined) | 25.1 | – | – | –
10 | CC(=O)CCCC(=O)NC1N=C(c2ccccc2)c2ccccc2N(CC(=O)N[C@@H](CC2CCCCC2)C(N)=O)C1=O (some centres undefined) | 794 | – | – | –
11 | CC(=O)CCCC(=O)NC1N=C(c2ccccc2)c2ccccc2N(CC(=O)NCCc2cccc3ccccc23)C1=O (centres undefined) | 15.8 | – | – | –
12 | CC(=O)NC1N=C(c2ccccc2)c2ccccc2N(CC(=O)N[C@H](Cc2ccc(Cl)c(Cl)c2)C(N)=O)C1=O (some centres undefined) | 794 | – | – | –
13 | CC(=O)CCCC(=O)NC1N=C(c2ccccc2)c2ccccc2N(CC(=O)NCCc2ccc3ccccc3c2)C1=O (centres undefined) | 15.8 | – | – | –
14 | CC(=O)CCCC(=O)NC1N=C(c2ccccc2)c2ccccc2N(CC(=O)NCCCc2cccc(Cl)c2)C1=O (centres undefined) | 100 | – | – | –
15 | CC(=O)CCCC(=O)NC1N=C(Cn2ccnc2)c2ccccc2N(CC(=O)N[C@@H](Cc2ccc(Cl)c(Cl)c2)C(N)=O)C1=O (some centres undefined) | 794 | – | – | –
16 | CS(=O)(=O)NC1N=C(c2ccccc2)c2ccccc2N(CC(=O)N[C@@H](Cc2ccc(Cl)c(Cl)c2)C(N)=O)C1=O (some centres undefined) | 501 | – | – | –
17 | CC(=O)CCCC(=O)NC1N=C(c2ccccc2)c2ccccc2N(CC(=O)NCCc2ccccc2)C1=O (centres undefined) | 316 | – | – | –
18 | CC(=O)CCCC(=O)NC1N=C(c2ccccc2)c2ccccc2N(CC(=O)NCCc2ccc(Cl)c(Cl)c2)C1=O (centres undefined) | 25.1 | 0.2 | 4 | 12
19 | CC(=O)NC1N=C(c2ccccc2)c2ccccc2N(CC(=O)NCc2nc(-c3ccc(Cl)c(Cl)c3)cs2)C1=O (centres undefined) | > 5010 | – | – | –
20 | CC(=O)NC1N=C(c2ccccc2)c2ccccc2N(CC(=O)N(C)CCc2cccc(Cl)c2)C1=O (centres undefined) | 1580 | – | – | –
21 | NC(=O)[C@H](Cc1ccc(Cl)c(Cl)c1)NC(=O)CN1C(=O)C(NC(=O)CN2CCOCC2)N=C(c2ccccc2)c2ccccc21 (some centres undefined) | 39.8 | 2.8 | 33 | –
22 | CC(=O)CCCC(=O)NC1N=C(c2ccccc2)c2ccccc2N(CC(=O)NC2=NOC(c3ccccc3)C2)C1=O (centres undefined) | > 3160 | – | – | –
23 | CC(=O)CCCC(=O)NC1N=C(c2ccccc2)c2ccccc2N(CC(=O)NCCc2ccccc2Cl)C1=O (centres undefined) | 200 | – | – | –
24 | CC(=O)NC1N=C(c2ccccc2)c2ccccc2N(CC(=O)NCCc2cccc3ccccc23)C1=O (centres undefined) | 100 | – | – | –
25 | CC(=O)NC1N=C(c2ccccc2)c2ccccc2N(CC(=O)NCc2nc(-c3ccccc3)no2)C1=O (centres undefined) | 794 | – | – | –
